Molecular target: T1, CODH ICh (Carboxydothermus hydrogenoformans, UniProt P59934)
T1 sequence (P59934 2-636): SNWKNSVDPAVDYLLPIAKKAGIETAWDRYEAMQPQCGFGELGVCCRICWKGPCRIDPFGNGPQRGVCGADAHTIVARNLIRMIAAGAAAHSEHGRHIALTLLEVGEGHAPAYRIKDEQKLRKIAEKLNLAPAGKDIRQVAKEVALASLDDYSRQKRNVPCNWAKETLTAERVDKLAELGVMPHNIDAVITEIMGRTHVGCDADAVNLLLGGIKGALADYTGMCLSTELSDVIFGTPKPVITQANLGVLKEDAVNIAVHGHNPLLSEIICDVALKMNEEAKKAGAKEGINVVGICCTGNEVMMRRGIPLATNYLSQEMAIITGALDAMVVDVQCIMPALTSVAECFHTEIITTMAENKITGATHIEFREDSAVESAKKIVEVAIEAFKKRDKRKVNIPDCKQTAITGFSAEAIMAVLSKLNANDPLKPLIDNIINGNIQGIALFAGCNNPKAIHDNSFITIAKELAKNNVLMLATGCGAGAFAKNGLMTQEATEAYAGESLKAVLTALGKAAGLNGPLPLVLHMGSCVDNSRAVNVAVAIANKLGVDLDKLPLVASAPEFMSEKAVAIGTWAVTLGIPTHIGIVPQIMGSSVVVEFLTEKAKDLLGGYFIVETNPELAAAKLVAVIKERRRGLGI
Type: biochemical

N#CO [cyanate]
chronoamperometry, inactivation half-time at 6.7 mM cyanate: ~ 90 seconds

Reference: article PMC3955222 (Chembiochem : a European journal of chemical biology, 2013)
